One assay has as its target T1, A1R (Homo sapiens, UniProt P30542).
T1 sequence (P30542 1-326): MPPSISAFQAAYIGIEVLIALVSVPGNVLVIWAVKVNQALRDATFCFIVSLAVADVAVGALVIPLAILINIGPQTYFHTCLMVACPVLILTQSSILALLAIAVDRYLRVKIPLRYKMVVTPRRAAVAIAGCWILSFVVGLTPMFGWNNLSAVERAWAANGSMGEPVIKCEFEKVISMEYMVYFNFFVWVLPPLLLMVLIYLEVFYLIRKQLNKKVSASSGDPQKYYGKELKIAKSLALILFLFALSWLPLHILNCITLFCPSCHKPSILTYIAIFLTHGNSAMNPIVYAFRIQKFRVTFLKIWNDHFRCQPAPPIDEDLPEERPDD
Description: Activity assay of adenosine receptor modulators, A1R cAMP (Table 1). It is filed as cell-based. The method, then: (§1) Compounds (e.g., adenosine receptor modulators) were tested for its biological activity. The assay results in Table 1 indicate (+ means >1 μM; ++ means 100 nM to 1 μM; +++ means <100 nM).

A further assay concerns the target T2, A3R (Homo sapiens, UniProt P0DMS8).
T2 sequence (P0DMS8 1-318): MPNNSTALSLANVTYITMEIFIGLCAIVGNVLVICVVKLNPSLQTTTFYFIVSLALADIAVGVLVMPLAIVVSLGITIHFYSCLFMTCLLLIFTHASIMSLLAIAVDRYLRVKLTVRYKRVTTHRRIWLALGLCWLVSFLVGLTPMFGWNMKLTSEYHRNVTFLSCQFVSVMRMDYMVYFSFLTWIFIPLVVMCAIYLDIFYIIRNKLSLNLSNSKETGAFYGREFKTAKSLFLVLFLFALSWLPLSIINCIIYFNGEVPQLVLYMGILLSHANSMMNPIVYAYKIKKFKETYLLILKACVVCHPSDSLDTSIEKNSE
Description: Activity assay of adenosine receptor modulators, A3R cAMP (Table 1). Type of assay: cell-based. The method, then: as §1

A further assay addresses Adenosine A2A Receptor (Homo sapiens, UniProt P29274). Description: Activity assay of adenosine receptor modulators, Adenosine A2A Receptor (Table 1). Type of assay: biochemical. The following applies: cAMP; read-out: A2AR cAMP IC50. The method, then:
as §1

For the next assay, the target named is T3, Adenosine A2B Receptor (Homo sapiens, UniProt P29275).
T3 sequence (P29275 1-332): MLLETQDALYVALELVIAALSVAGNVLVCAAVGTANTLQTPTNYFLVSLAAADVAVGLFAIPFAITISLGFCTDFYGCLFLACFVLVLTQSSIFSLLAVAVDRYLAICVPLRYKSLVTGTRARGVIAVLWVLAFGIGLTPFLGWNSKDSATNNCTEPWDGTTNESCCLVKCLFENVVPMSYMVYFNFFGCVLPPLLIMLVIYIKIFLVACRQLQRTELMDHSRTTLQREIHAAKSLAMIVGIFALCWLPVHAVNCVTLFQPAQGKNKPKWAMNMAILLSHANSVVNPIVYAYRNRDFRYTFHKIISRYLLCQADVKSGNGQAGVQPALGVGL
Description: Activity assay of adenosine receptor modulators, Adenosine A2B Receptor (Table 1). The following applies: cAMP; read-out: A2BR cAMP IC50. Type of assay: biochemical. How it is done: as §1

The values below come from patent US20200079793A1, “COMPOUNDS AND METHODS FOR MODULATING ADENOSINE A2B RECEPTOR AND ADENOSINE A2A RECEPTOR” (CORVUS PHARMACEUTICALS, INC., priority 2018, published 2020).

SMILES strings stand for the structures. Where only a bound is given, the exact number is not on record here.

Sequence of Adenosine A2A Receptor (P29274 whole entry): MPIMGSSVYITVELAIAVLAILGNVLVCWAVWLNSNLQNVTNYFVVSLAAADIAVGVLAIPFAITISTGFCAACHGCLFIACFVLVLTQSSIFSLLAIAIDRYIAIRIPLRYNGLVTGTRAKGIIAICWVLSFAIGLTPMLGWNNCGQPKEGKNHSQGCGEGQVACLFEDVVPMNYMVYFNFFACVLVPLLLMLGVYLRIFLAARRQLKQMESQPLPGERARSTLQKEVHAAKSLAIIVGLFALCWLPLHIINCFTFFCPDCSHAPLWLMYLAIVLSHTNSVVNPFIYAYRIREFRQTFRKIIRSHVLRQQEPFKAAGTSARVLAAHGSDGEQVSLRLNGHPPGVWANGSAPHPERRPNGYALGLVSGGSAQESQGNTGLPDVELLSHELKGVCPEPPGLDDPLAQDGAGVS

Usually IC50 stands for the midpoint of a concentration-inhibition curve. `Cc1nc2nc(N[C@@H](C)c3cccnc3)nc(C(=O)NC[C@H](C)O)c2s1` [Example 15, N—((S)-2-Hydroxypropyl)-2-methyl-5-(((S)-1-(pyridin-3-yl)ethyl)amino)thiazolo[4,5-d]pyrimidine-7-carboxamide]: the concentration for half-maximal inhibition (IC50) on A1R is above 1000 nM; at A3R, above 1000 nM; at Adenosine A2A Receptor it was above 1000 nM; at Adenosine A2B Receptor, below 100 nM.
Turning to `CC(=O)N[C@@H]1CCN(C(=O)c2nc(N[C@@H](C)c3cncc(F)c3)nc3nc(C)sc23)C1` [Example 30, N—((R)-1-(5-(((S)-1-(5-Fluoropyridin-3-yl)ethyl)amino)-2-methylthiazolo[4,5-d]pyrimidine-7-carbonyl)pyrrolidin-3-yl)acetamide], the half-inhibitory concentration (IC50) on A1R was above 1000 nM; against A3R, above 1000 nM; at Adenosine A2A Receptor, above 1000 nM; on Adenosine A2B Receptor, 100 to 1000 nM.
As to `CC(=O)NC[C@H]1CCN(C(=O)c2nc(N[C@@H](C)c3cncc(F)c3)nc3nc(C)sc23)C1` [Example 53, N—(((R)-1-(5-(((S)-1-(5-Fluoropyridin-3-yl)ethyl)amino)-2-methylthiazolo[4,5-d]pyrimidine-7-carbonyl)pyrrolidin-3-yl)methyl)acetamide], the concentration for half-maximal inhibition (IC50) against A1R is above 1000 nM; at A3R it was above 1000 nM; on Adenosine A2A Receptor, above 1000 nM; on Adenosine A2B Receptor, 100 to 1000 nM.
Regarding `Cc1nc2nc(N[C@@H](C)c3cncc(F)c3)nc(C(=O)N3CC(NC(=O)NC4CCCC4)C3)c2s1` [Example 60, (S)-1-Cyclopentyl-3-(1-(5-((1-(5-fluoropyridin-3-yl)ethyl)amino)-2-methylthiazolo[4,5-d]pyrimidine-7-carbonyl)azetidin-3-yl)urea], the 50% inhibitory concentration (IC50) against A1R was above 1000 nM; against A3R, 100 to 1000 nM; on Adenosine A2A Receptor it was below 100 nM; at Adenosine A2B Receptor it was below 100 nM.
For the compound `COCCNC(=O)c1nc(N[C@@H](C)c2cncc(F)c2)nc2nc(C)sc12` [Example 25, (S)-5-((1-(5-Fluoropyridin-3-yl)ethyl)amino)-N-(2-methoxyethyl)-2-methylthiazolo[4,5-d]pyrimidine-7-carboxamide], the IC50 on A1R was above 1000 nM; against A3R, above 1000 nM; at Adenosine A2A Receptor it was 100 to 1000 nM; at Adenosine A2B Receptor, below 100 nM.
Take `Cc1nc2nc(N[C@@H](C)c3cncc(F)c3)nc(C(=O)N3CC(NC(=O)C4(C)CC4)C3)c2s1` [Example 54, (S)—N-(1-(5-((1-(5-Fluoropyridin-3-yl)ethyl)amino)-2-methylthiazolo[4,5-d]pyrimidine-7-carbonyl)azetidin-3-yl)-1-methylcyclopropane-1-carboxamide]: the IC50 was above 1000 nM at A1R, below 100 nM against A3R, below 100 nM on Adenosine A2A Receptor and below 100 nM on Adenosine A2B Receptor.
`CCNC(=O)C1CCN(C(=O)c2nc(N[C@@H](C)c3cncc(F)c3)nc3nc(C)sc23)C1` (stereo partly drawn) [Example 38, N-ethyl-1-(5-(((S)-1-(5-fluoropyridin-3-yl)ethyl)amino)-2-methylthiazolo[4,5-d]pyrimidine-7-carbonyl)pyrrolidine-3-carboxamide]: the IC50 against A1R is above 1000 nM; against A3R, above 1000 nM; on Adenosine A2A Receptor, above 1000 nM; on Adenosine A2B Receptor it was below 100 nM.
Turning to `Cc1nc2nc(N[C@@H](C)c3cccnc3)nc(C(=O)NC[C@@H](C)O)c2s1` [Example 12, N—((R)-2-Hydroxypropyl)-2-methyl-5-(((S)-1-(pyridin-3-yl)ethyl)amino)thiazolo[4,5-d]pyrimidine-7-carboxamide], the IC50 against A1R is above 1000 nM; at A3R, above 1000 nM; at Adenosine A2A Receptor it was above 1000 nM; on Adenosine A2B Receptor it was below 100 nM.
In the case of `Cc1nc2nc(N[C@@H](C)c3cncc(F)c3)nc(C(=O)NCC3CCOCC3)c2s1` [Example 11, (S)-5-((1-(5-Fluoropyridin-3-yl)ethyl)amino)-2-methyl-N-((tetrahydro-2H-pyran-4-yl)methyl)thiazolo[4,5-d]pyrimidine-7-carboxamide], the IC50 on A1R is 100 to 1000 nM; at A3R, above 1000 nM; on Adenosine A2A Receptor, 100 to 1000 nM; at Adenosine A2B Receptor it was below 100 nM.
With `Cc1nc2nc(N[C@@H](C)c3ccccn3)nc(C(=O)N3CC[C@H](O)C3)c2s1` [Example 17, ((S)-3-Hydroxypyrrolidin-1-yl)(2-methyl-5-(((S)-1-(pyridin-2-yl)ethyl)amino)thiazolo[4,5-d]pyrimidin-7-yl)methanone], the IC50 against A1R is above 1000 nM; at A3R, above 1000 nM; at Adenosine A2A Receptor it was above 1000 nM; on Adenosine A2B Receptor it was below 100 nM.
`Cc1nc2nc(N[C@@H](C)c3cncc(F)c3)nc(C(=O)N3CC(NC(=O)C4CC(F)(F)C4)C3)c2s1` [Example 69, (S)-3,3-Difluoro-N-(1-(5-((1-(5-fluoropyridin-3-yl)ethyl)amino)-2-methylthiazolo[4,5-d]pyrimidine-7-carbonyl)azetidin-3-yl)cyclobutane-1-carboxamide]: the IC50 on A1R is above 1000 nM; against A3R, 100 to 1000 nM; on Adenosine A2A Receptor, below 100 nM; at Adenosine A2B Receptor, 100 to 1000 nM.
In the case of `Cc1nc2nc(N[C@@H](C)c3cccnc3)nc(C(=O)N3CCCC3)c2s1` [Example 6, (S)-(2-Methyl-5-((1-(pyridin-3-yl)ethyl)amino)thiazolo[4,5-d]pyrimidin-7-yl)(pyrrolidin-1-yl)methanone], the IC50 against A1R is above 1000 nM; on A3R, 100 to 1000 nM; at Adenosine A2A Receptor it was 100 to 1000 nM; at Adenosine A2B Receptor, below 100 nM.
In the case of `COCC1CN(C(=O)c2nc(N[C@@H](C)c3cncc(F)c3)nc3nc(C)sc23)C1` [Example 51, (S)-(5-((1-(5-Fluoropyridin-3-yl)ethyl)amino)-2-methylthiazolo[4,5-d]pyrimidin-7-yl)(3-(methoxymethyl)azetidin-1-yl)methanone], the half-maximal inhibitory concentration (IC50) against A1R is above 1000 nM; against A3R, above 1000 nM; at Adenosine A2A Receptor, 100 to 1000 nM; on Adenosine A2B Receptor it was below 100 nM.
In the case of `Cc1nc2nc(N[C@@H](C)c3cccnc3)nc(C(=O)N3CC(NC(=O)c4cccc(F)c4)C3)c2s1` [Example 74, 3-Fluoro-N-[1-[2-methyl-5-[[(S)-1-(3-pyridyl)ethyl]amino]thiazolo[4,5-d]pyrimidine-7-carbonyl]azetidin-3-yl]benzamide], the 50% inhibitory concentration (IC50) was above 1000 nM on A1R, above 1000 nM against A3R, below 100 nM on Adenosine A2A Receptor and 100 to 1000 nM at Adenosine A2B Receptor.
Regarding `Cc1nc2nc(N[C@@H](C)c3ccccn3)nc(C(=O)N3CC(NC(=O)NC(C)(C)C)C3)c2s1` [Example 63, (S)-1-(tert-Butyl)-3-(1-(2-methyl-5-((1-(pyridin-2-yl)ethyl)amino)thiazolo[4,5-d]pyrimidine-7-carbonyl)azetidin-3-yl)urea], the IC50 was above 1000 nM against A1R, 100 to 1000 nM against A3R, below 100 nM at Adenosine A2A Receptor and 100 to 1000 nM at Adenosine A2B Receptor.
Regarding `Cc1nc2nc(N[C@@H](C)c3cncc(F)c3)nc(C(=O)N3CC(NC(=O)c4ccccc4)C3)c2s1` [Example 58, (S)—N-(1-(5-((1-(5-Fluoropyridin-3-yl)ethyl)amino)-2-methylthiazolo[4,5-d]pyrimidine-7-carbonyl)azetidin-3-yl)benzamide], the concentration for half-maximal inhibition (IC50) at A1R is above 1000 nM; at A3R, below 100 nM; on Adenosine A2A Receptor, below 100 nM; at Adenosine A2B Receptor, below 100 nM.
Consider `Cc1nc2nc(N[C@@H](C)c3cccnc3)nc(C(=O)N3CC(NC(=O)c4ccccc4)C3)c2s1` [Example 73, N-[1-[2-Methyl-5-[[(S)-1-(3-pyridyl)ethyl]amino]thiazolo[4,5-d]pyrimidine-7-carbonyl]azetidin-3-yl]benzamide], for which the half-inhibitory concentration (IC50) was above 1000 nM on A1R, 100 to 1000 nM against A3R, below 100 nM on Adenosine A2A Receptor and 100 to 1000 nM on Adenosine A2B Receptor.
For the compound `Cc1nc2nc(N[C@@H](C)c3cncc(F)c3)nc(C(=O)N3CC(NC(=O)c4ccoc4)C3)c2s1` [Example 72, (S)—N-(1-(5-((1-(5-Fluoropyridin-3-yl)ethyl)amino)-2-methylthiazolo[4,5-d]pyrimidine-7-carbonyl)azetidin-3-yl)furan-3-carboxamide], the IC50 at A1R is above 1000 nM; at A3R, 100 to 1000 nM; at Adenosine A2A Receptor, below 100 nM; on Adenosine A2B Receptor, 100 to 1000 nM.
